Experimental data reported in ChEMBL document CHEMBL1201862, “PubChem BioAssay data set” (2004).
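Grown in 96-well plates, cells were treated for 48 hours with each compound at five concentrations. Insufficient inhibition: endpoint recorded as highest concentration tested. The concentration for 50% growth inhibition is given as GI50.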 The source made the active and inactive calls. Rule as the data show it: active = GI50 up to about 1.1 µM and inactive = higher.

How the values were obtained:
Test in all cases: growth of human tumour cells (NCI), 48 h
ACHN = system: ACHN
BT-549 = system: BT-549
COLO 205 = system: COLO 205
HCT-116 = system: HCT-116
HOP-92 = system: HOP-92
IGROV-1 = system: IGROV-1
LOX IMVI = system: LOX IMVI
M14 = system: M14
MCF7 = system: MCF7
MDA-MB-231 = system: MDA-MB-231
MDA-MB-435 = system: MDA-MB-435
MOLT-4 = system: MOLT-4
NCI-H460 = system: NCI-H460
NCI-H522 = system: NCI-H522
OVCAR-5 = system: OVCAR-5
SF-539 = system: SF-539
SK-MEL-2 = system: SK-MEL-2
SNB-75 = system: SNB-75
SW-620 = system: SW-620
U-251 = system: U-251

Compound	GI50 (ACHN)	GI50 (BT-549)	GI50 (COLO 205)	GI50 (HCT-116)	GI50 (HOP-92)	GI50 (IGROV-1)	GI50 (LOX IMVI)	GI50 (M14)	GI50 (MCF7)	GI50 (MDA-MB-231)	GI50 (MDA-MB-435)	GI50 (MOLT-4)	GI50 (NCI-H460)	GI50 (NCI-H522)	GI50 (OVCAR-5)	GI50 (SF-539)	GI50 (SK-MEL-2)	GI50 (SNB-75)	GI50 (SW-620)	GI50 (U-251)
CC1=NN(c2nc(N)nc(/C(C#N)=C/c3ccc([N+](=O)[O-])o3)n2)C(C)(C)C1	1.81 µM (inactive)	3.34 µM (inactive)	1.65 µM (inactive)	1.45 µM (inactive)	1.95 µM (inactive)	2.05 µM (inactive)	1.73 µM (inactive)	1.57 µM (inactive)	1.69 µM (inactive)	1.81 µM (inactive)	2.39 µM (inactive)	2.26 µM (inactive)	2.57 µM (inactive)	1.66 µM (inactive)	1.58 µM (inactive)	3.22 µM (inactive)	6.34 µM (inactive)	2.85 µM (inactive)	1.76 µM (inactive)	5.21 µM (inactive)
C=C1CC(C)(COc2ccc3c(C)cc(=O)oc3c2)OC1=O (stereo not given)	2.08 µM (inactive)	2.31 µM (inactive)	0.951 µM (active)	0.778 µM (active)	1.09 µM (active)	2.47 µM (inactive)	1.59 µM (inactive)	1.34 µM (inactive)	0.706 µM (active)	3.92 µM (inactive)	1.28 µM (inactive)	1.47 µM (inactive)	5.3 µM (inactive)	0.276 µM (active)	4.22 µM (inactive)	0.951 µM (active)	1.65 µM (inactive)	5.42 µM (inactive)	0.431 µM (active)	10.9 µM (inactive)
CN1C(=O)C(O)CC1c1cccc(C(F)(F)F)c1 (stereo not given)	> 100 µM (inactive)	> 100 µM (inactive)	> 100 µM (inactive)	> 100 µM (inactive)	> 100 µM (inactive)	> 100 µM (inactive)	> 100 µM (inactive)	> 100 µM (inactive)	> 100 µM (inactive)	> 100 µM (inactive)	> 100 µM (inactive)	> 100 µM (inactive)	> 100 µM (inactive)	> 100 µM (inactive)	> 100 µM (inactive)	> 100 µM (inactive)	> 100 µM (inactive)	> 100 µM (inactive)	> 100 µM (inactive)	> 100 µM (inactive)
CC(=O)Nc1ccc2cc3[nH]c4cc(NC(C)=O)ccc4c3nc2c1	> 100 µM (inactive)	> 100 µM (inactive)	> 100 µM (inactive)	> 100 µM (inactive)	> 100 µM (inactive)	> 100 µM (inactive)	> 100 µM (inactive)	> 100 µM (inactive)	> 100 µM (inactive)	> 100 µM (inactive)	> 100 µM (inactive)	24.9 µM (inactive)	> 100 µM (inactive)	> 100 µM (inactive)	> 100 µM (inactive)	> 100 µM (inactive)	> 100 µM (inactive)	> 100 µM (inactive)	> 100 µM (inactive)	77.4 µM (inactive)
O=c1[nH]nc(-c2ccccc2)n1/N=C/c1ccc([N+](=O)[O-])o1	2.42 µM (inactive)	6 µM (inactive)	4.15 µM (inactive)	1.37 µM (inactive)	6.71 µM (inactive)	2.57 µM (inactive)	3.34 µM (inactive)	4.14 µM (inactive)	2.04 µM (inactive)	6.71 µM (inactive)	5.2 µM (inactive)	0.962 µM (active)	5.12 µM (inactive)	1.32 µM (inactive)	10.4 µM (inactive)	4.65 µM (inactive)	5.21 µM (inactive)	16 µM (inactive)	2.49 µM (inactive)	6.5 µM (inactive)
O=C(CC(=O)N1N=C(c2ccccc2)C(/N=N/c2ccc(S(=O)(=O)CCOS(=O)(=O)O)cc2)C1=O)Nc1ccc(Cl)cc1 (stereo not given)	9.82 µM (inactive)	> 100 µM (inactive)	> 100 µM (inactive)	85.9 µM (inactive)	> 100 µM (inactive)	8.75 µM (inactive)	84.1 µM (inactive)	28.1 µM (inactive)	> 100 µM (inactive)	91.6 µM (inactive)	> 100 µM (inactive)	79.3 µM (inactive)	> 100 µM (inactive)	30.9 µM (inactive)	> 100 µM (inactive)	> 100 µM (inactive)	> 100 µM (inactive)	> 100 µM (inactive)	> 10 µM (inactive)	> 100 µM (inactive)
C=C(Br)C(Br)(CCl)CCC(Cl)C(C)C.C=C(Cl)C(Br)(CCl)CCC(Cl)C(C)C (stereo not given)	1.74 µM (inactive)	1.7 µM (inactive)	2.13 µM (inactive)	1.75 µM (inactive)	1.87 µM (inactive)	1.88 µM (inactive)	0.299 µM (active)	1.89 µM (inactive)	1.94 µM (inactive)	1.24 µM (inactive)	1.93 µM (inactive)	0.439 µM (active)	1.57 µM (inactive)	1.35 µM (inactive)	2.84 µM (inactive)	1.94 µM (inactive)	1.47 µM (inactive)	0.889 µM (active)	1.53 µM (inactive)	1.75 µM (inactive)
O=C(O)c1cccc(CC(Br)C(=O)O)c1 (stereo not given)	> 100 µM (inactive)	> 100 µM (inactive)	> 100 µM (inactive)	> 100 µM (inactive)	> 100 µM (inactive)	> 100 µM (inactive)	> 100 µM (inactive)	> 100 µM (inactive)	> 100 µM (inactive)	> 100 µM (inactive)	> 100 µM (inactive)	> 100 µM (inactive)	> 100 µM (inactive)	> 100 µM (inactive)	> 100 µM (inactive)	> 100 µM (inactive)	> 100 µM (inactive)	> 100 µM (inactive)	> 100 µM (inactive)	> 100 µM (inactive)
CC(=O)OC1C(C)OC(OC2C[C@](O)(C(C)=O)Cc3c(O)c4c(c(O)c32)C(=O)c2ccccc2C4=O)C(F)C1OC(C)=O (stereo not given in full)	0.114 µM (active)	1.04 µM (active)	1.98 µM (inactive)	0.318 µM (active)	0.457 µM (active)	0.243 µM (active)	0.156 µM (active)	0.735 µM (active)	0.0474 µM (active)	1.06 µM (active)	2.25 µM (inactive)	< 0.0142 µM (active)	0.0353 µM (active)	0.61 µM (active)	0.916 µM (active)	0.194 µM (active)	3.11 µM (inactive)	0.417 µM (active)	0.495 µM (active)	0.238 µM (active)
CCc1oc2ccccc2c1C(=O)c1cc(Br)c(O)c(Br)c1 [BENZBROMARONE]	17.5 µM (inactive)	28.2 µM (inactive)	20.9 µM (inactive)	22.4 µM (inactive)	24.1 µM (inactive)	33.7 µM (inactive)	24.7 µM (inactive)	28.9 µM (inactive)	23.7 µM (inactive)	20.5 µM (inactive)	29.7 µM (inactive)	26.9 µM (inactive)	18.4 µM (inactive)	19.9 µM (inactive)	21.4 µM (inactive)	17.1 µM (inactive)	19.8 µM (inactive)	18.9 µM (inactive)	35.6 µM (inactive)	17.3 µM (inactive)
COc1cc(CC(C)C(C)Cc2ccc(O)c(OC)c2)ccc1O (stereo not given) [DIHYDROGUAIARETIC ACID]	13.1 µM (inactive)	15.1 µM (inactive)	> 50 µM (inactive)	17.4 µM (inactive)	11.7 µM (inactive)	12.7 µM (inactive)	11.5 µM (inactive)	14.1 µM (inactive)	17.9 µM (inactive)	10.1 µM (inactive)	13 µM (inactive)	9.29 µM (inactive)	14.5 µM (inactive)	9.86 µM (inactive)	> 50 µM (inactive)	31.8 µM (inactive)	9.68 µM (inactive)	14.2 µM (inactive)	18.2 µM (inactive)	14.8 µM (inactive)
